Assay results as given in US11999746B2, “Compounds” (GlaxoSmithKline Intellectual Property Development Limited, priority 2014, dated 2024).
Counter-ions that a name gives are not always drawn. Like-named read-outs stand apart in the source and are kept apart here.

Assays:
[1] = molecular target: T1, recombinant human Lp-PLA2 (Homo sapiens, UniProt Q13093); assay: (1b) hrThioPAF assay, recombinant human Lp-PLA2; format: biochemical; conditions: Examples 266-412 were tested here, one experiment or average of multiple experiments, read-out: rhLp-PLA2 (pIC50) (converted)
T1 sequence (Q13093 22-441): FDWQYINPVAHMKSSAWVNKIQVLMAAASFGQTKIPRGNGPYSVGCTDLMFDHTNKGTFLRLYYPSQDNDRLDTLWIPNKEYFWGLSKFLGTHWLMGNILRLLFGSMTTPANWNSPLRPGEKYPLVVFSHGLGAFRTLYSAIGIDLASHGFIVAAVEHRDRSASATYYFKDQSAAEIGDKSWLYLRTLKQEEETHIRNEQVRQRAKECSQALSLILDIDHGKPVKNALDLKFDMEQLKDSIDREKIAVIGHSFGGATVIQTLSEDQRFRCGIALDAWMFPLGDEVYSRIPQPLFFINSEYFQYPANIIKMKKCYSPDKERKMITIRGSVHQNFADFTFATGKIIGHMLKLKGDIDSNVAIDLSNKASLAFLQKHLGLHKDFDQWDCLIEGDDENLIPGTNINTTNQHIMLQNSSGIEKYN
How it was run: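 Fluorogenic assay: 20 pM rhLp-PLA2 in 50 mM HEPES pH 7.4, 150 mM NaCl, 1 mM CHAPS with 1:3 serially diluted compounds; substrate mix of 40 μM 2-thio-PAF, 40 μM CPM, 400 μM NEM (pre-addition levels). 20 min at 25 °C in the dark; fluorescence ex 380/em 485 nm, pIC50 by curve fitting.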

Lp-PLA2 in human plasma = molecular target: T2, Lp-PLA2 in human plasma (Homo sapiens, UniProt Q13093); assay: (3b) Lp-PLA2 human plasma alternative Thio-PAF assay; format: biochemical; conditions: pooled human plasma, read-out: pIC50 in the Lp-PLA2 human plasma assay (converted)
T2 construct: from tissue; host or cells: pooled human plasma
T2 sequence (Q13093 22-441): T1 sequence (Q13093 22-441)
How it was run: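 Pooled human plasma was preincubated with compound for 15 min at RT. Substrate solution (2 mM 2-thio-PAF, 52 μM CPM, 2.5 mM NEM in 50 mM HEPES pH 7.4, 150 mM NaCl, 1 mM CHAPS; pre-addition concentrations) was added, and the reaction was quenched with 5% TFA after 3 min. Fluorescence was read at ex 380/em 485 nm and fitted to give pIC50.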

[2] = (3b) alternative Thio-PAF assay, Examples of 266-412 were tested here

Row | Compound | IC50 [1] [µM] | IC50 (Lp-PLA2 in human plasma; [2]) [nM] | IC50 (Lp-PLA2 in human plasma; (3a) Thio-PAF assay, Examples 1-265 and 413-430 were tested here) [nM]
1 | N#Cc1cc(COc2cc3n(c(=O)n2)CC2CN(CCC(=O)O)CCN32)ccc1F (centres unmarked) [Example E325, 3-(7-((3-Cyano-4-fluorobenzyl)oxy)-9-oxo-3,4,11,11a-tetrahydro-1H-pyrazino[1,2′:3,4]imidazo[1,2-c]pyrimidin-2(9H)-yl)propanoic acid] | ≤ 10 | ≤ 100 | –
2 | CCS(=O)(=O)N1CCN2c3cc(OCc4ccc(F)c(C#N)c4)nc(=O)n3CC2C1 (centres unmarked) [Example E283, 5-(((2-(Ethylsulfonyl)-9-oxo-2,3,4,9,11,11a-hexahydro-1H-pyrazino[1,2′:3,4]imidazo[1,2-c]pyrimidin-7-yl)oxy)methyl)-2-fluorobenzonitrile] | ≤ 10 | ≤ 100 | –
3 | CN1CC2Cn3c(cc(OCc4ccc(F)c(C#N)c4)nc3=O)N2CC1=O (centres unmarked) [Example E357, 2-Fluoro-5-(((2-methyl-3,9-dioxo-2,3,4,9,11,11a-hexahydro-1H-pyrazino[1,2′:3,4]imidazo[1,2-c]pyrimidin-7-yl)oxy)methyl)benzonitrile] | ≤ 10 | ≤ 100 | –
4 | O=c1nc(OCc2ccc(F)c(F)c2)cc2n1CC1CN(CC(F)(F)F)CCN21 (centres unmarked) [Example E338, 7-((3,4-Difluorobenzyl)oxy)-2-(2,2,2-trifluoroethyl)-3,4,11,11a-tetrahydro-1H pyrazino[1′,2′:3,4]imidazo[1,2-c]pyrimidin-9(2H)-one trifluoroacetate] | 0.01 | ≤ 100 | –
5 | O=c1nc(OCc2ccc(F)c(F)c2)cc2n1CC1COCCN21 (centres unmarked) [Example E336, 7-((3,4-Difluorobenzyl)oxy)-3,4,11,11a-tetrahydropyrimido[6′,1′:2,3]imidazo[5,1-c][1,4] oxazin-9(1H)-one] | ≤ 10 | ≤ 100 | –
6 | Cc1ccc(Oc2c(F)cc(COc3cc4n(c(=O)n3)CC3(CCOCC3)N4C)cc2F)cn1 [Example 405, 7-((3,5-Difluoro-4-((6-methylpyridin-3-yl)oxy)benzyl)oxy)-1-methyl-2′,3′,5′,6′-tetrahydro-1H-spiro[imidazo[1,2-c]pyrimidine-2,4′-pyran]-5(3H)-one] | ≤ 0.1 | ≤ 100 | –
7 | CC(C)C(=O)C(=O)N1CCN2c3cc(OCc4ccc(F)c(F)c4)nc(=O)n3CC2C1 (centres unmarked) [Example E303, 1-(7-((3,4-Difluorobenzyl)oxy)-9-oxo-3,4,11,11a-tetrahydro-1H-pyrazino[1′,2′:3,4]imidazo[1,2-c]pyrimidin-2(9H)-yl)-3-methylbutane-1,2-dione] | ≤ 10 | ≤ 100 | –
8 | O=c1nc(OCc2ccc(F)c(F)c2)cc2n1CC1CNCCN21 (centres unmarked) [Example E274, 7-((3,4-Difluorobenzyl)oxy)-3,4,11,11a-tetrahydro-1H-pyrazino[1′,2′:3,4] imidazo [1,2-c]pyrimidin-9(2H)-one] | ≤ 0.1 | ≤ 100 | –
9 | O=c1nc(OCc2cc(F)c(Oc3cncc(C(F)(F)F)c3)c(F)c2)cc2n1CC1(CCN(Cc3ccccc3)CC1)N2 [Example 411, 1′-Benzyl-7-((3,5-difluoro-4-((5-(trifluoromethyl)pyridin-3-yl)oxy)benzyl)oxy)-1H-spiro[imidazo[1,2-c]pyrimidine-2,4′-piperidin]-5(3H)-one] | ≤ 0.001 | ≤ 100 | ≤ 10000
10 | CC(C)OC(=O)N1CCN2c3cc(OCc4ccc(F)c(F)c4)nc(=O)n3CC2C1 (centres unmarked) [Example E307, Isopropyl 7-((3,4-difluorobenzyl)oxy)-9-oxo-3,4,11,11a-tetrahydro-1H-pyrazino[1′,2′:3,4]imidazo[1,2-c]pyrimidine-2(9H)-carboxylate] | ≤ 10 | ≤ 100 | –
11 | CC(C)(N)CC(=O)N1CCN2c3cc(OCc4ccc(F)c(F)c4)nc(=O)n3CC2C1 (centres unmarked) [Example E334, 2-(3-Amino-3-methylbutanoyl)-7-((3,4-difluorobenzyl)oxy)-3,4,11,11a-tetrahydro-1H-pyrazino[1′,2′:3,4]imidazo[1,2-c]pyrimidin-9(2H)-one] | ≤ 10 | ≤ 100 | –
12 | Cc1ccc(Oc2c(F)cc(COc3cc4n(c(=O)n3)CC3CNCCN43)cc2F)cn1 (centres unmarked) [Example E279, 7-((3,5-Difluoro-4-((6-methylpyridin-3-yl)oxy)benzyl)oxy)-3,4,11,11a-tetrahydro-1H-pyrazino[1′,2′:3,4] imidazo [1,2-c]pyrimidin-9(2H)-one] | ≤ 10 | ≤ 100 | –
13 | NC1(C(=O)N2CCN3c4cc(OCc5ccc(F)c(F)c5)nc(=O)n4CC3C2)CCCCC1 (centres unmarked) [Example E347, 2-(1-Aminocyclohexanecarbonyl)-7-((3,4-difluorobenzyl)oxy)-3,4,11,11a-tetrahydro-1H-pyrazino[1,2′:3,4]imidazo[1,2-c]pyrimidin-9(2H)-one] | ≤ 10 | ≤ 100 | –

Next, values leading:

Row | IC50 [1] [µM] | IC50 (Lp-PLA2 in human plasma; [2]) [nM] | IC50 (Lp-PLA2 in human plasma; (3a) Thio-PAF assay, Examples 1-265 and 413-430 were tested here) [nM] | Compound
14 | ≤ 0.001 | ≤ 100 | – | O=c1nc(OCc2cc(F)c(Oc3cncc(C(F)(F)F)c3)c(F)c2)cc2n1CC1CSCCN21 (centres unmarked) [Example E371, 7-((3,5-Difluoro-4-((5-(trifluoromethyl)pyridin-3-yl)oxy)benzyl)oxy)-3,4,11,11a-tetrahydropyrimido[6′,1′:2,3]imidazo[5,1-c][1,4]thiazin-9(1H)-one]
15 | ≤ 0.001 | ≤ 100 | – | O=c1nc(OCc2cc(F)c(Oc3cncc(C(F)(F)F)c3)c(F)c2)cc2n1CC1C[S+]([O-])CCN21 (centres unmarked) [Example E372, 7-((3,5-Difluoro-4-((5-(trifluoromethyl)pyridin-3-yl)oxy)benzyl)oxy)-3,4,11,11a-tetrahydropyrimido[6′,1′:2,3]imidazo[5,1-c][1,4]thiazin-9(1H)-one 2-oxide]
16 | ≤ 10 | ≤ 100 | – | Cc1ccc(Oc2c(F)cc(COc3cc4n(c(=O)n3)CC3CN(C)C(=O)CN43)cc2F)cn1 (centres unmarked) [Example E360, 7-((3,5-difluoro-4-((6-methylpyridin-3-yl)oxy)benzyl)oxy)-2-methyl-11,11a-dihydro-1H-pyrazino[1′,2′:3,4]imidazo[1,2-c]pyrimidine-3,9(2H,4H)-dione, trifluoroacetic acid salt]
17 | ≤ 10 | ≤ 100 | – | N[C@@H]1C[C@H]2Cn3c(cc(OCc4cc(F)c(Oc5ccnc(C(F)(F)F)c5)c(F)c4)nc3=O)N2C1 [Example E392, (7R,8aS)-7-Amino-3-((3,5-difluoro-4-((2-(trifluoromethyl)pyridin-4-yl)oxy)benzyl)oxy)-7,8,8a,9-tetrahydropyrrolo[1′,2′:3,4]imidazo[1,2-c]pyrimidin-1(6H)-one]
18 | ≤ 0.001 | ≤ 100 | – | N[C@H]1C[C@@H]2Cn3c(cc(OCc4cc(F)c(Oc5ccnc(C(F)(F)F)c5)c(F)c4)nc3=O)N2C1 [Example E388, (7S,8aR)-7-Amino-3-((3,5-difluoro-4-((2-(trifluoromethyl)pyridin-4-yl)oxy)benzyl)oxy)-7,8,8a,9-tetrahydropyrrolo[1′,2′:3,4]imidazo[1,2-c]pyrimidin-1(6H)-one]
19 | ≤ 10 | ≤ 100 | – | O=c1nc(OCc2cc(F)c(Oc3cncc(C(F)(F)F)c3)c(F)c2)cc2n1CC1CS(=O)(=O)CCN21 (centres unmarked) [Example E373, 7-((3,5-Difluoro-4-((5-(trifluoromethyl)pyridin-3-yl)oxy)benzyl)oxy)-3,4,11,11a-tetrahydropyrimido[6′,1′:2,3]imidazo[5,1-c][1,4]thiazin-9(1H)-one 2,2-dioxide]
20 | ≤ 10 | ≤ 100 | – | CN1c2cc(OCc3cc(F)c(Oc4cnn(C)c4)c(F)c3)nc(=O)n2CC12COC2 [Example E397, 7-((3,5-Difluoro-4-((1-methyl-1H-pyrazol-4-yl)oxy)benzyl)oxy)-1-methyl-1H-spiro[imidazo[1,2-c]pyrimidine-2,3′-oxetan]-5(3H)-one]
